Laboratory results as given in patent US8877773B2, “Methods for treating chronic obstructive pulmonary disease” (Indiana University Research and Technology Corporation, priority 2009, dated 2014).
“Also recorded” adds a separate entry of the source.

Columns and labels:
[1] = test system: panic-prone (1-AG treated) rats; experiment: Sodium lactate (NaLac) challenge in panic-prone rats: radio-telemetry of locomotor and cardiovascular (HR, MAP) responses; assay type: in vivo, rat
Experimental: Telemetry probes (Data Science International, St. Paul Minn.) were surgically implanted into the abdomen of anaesthetize rats to measure locomotor responses. Cardiovascular responses were measured by a femoral arterial line connected to the telemetric probe which contained a pressure transducer (Data Science International, St. Paul Minn.).
The minipump was then sutured into place subcutaneously at the nape of the neck. The concentration of the solutions was such that 3.5 nmol/[…] per hour of 1-AG or d-AG was infused continuously into the DMH/PeF region for the remainder of the given experiment. In the case of the siRNA experiments specialized T-cannulae were implanted permitting access to a removable 28 g injector to direct siRNA injections to the same location as the 1-AG infusions. Additionally these rats had guide cannulae directed to the opposite DMH/PeF for bilateral infusion of siRNA.
Rats received intravenous (i.v.) infusions (10 ml over 15 min of either 0.5M NaLac or 0.9% isotonic saline (when applicable)) using a syringe pump at least five days following the initiation of 1-AG or d-AG infusions. Once a stable baseline was achieved, i.v. infusions began and cardiovascular and activity data were recorded for 15 min (similar to clinical NaLac infusions).
Cardiovascular responses (i.e., MAP and HR) were measured by a femoral arterial line connected to a telemetric probe which contained a pressure transducer (Cat. no. C50-PXT, Data Science International (DSI) St. Paul Minn.). […] MAP and HR were recorded continuously in freely moving conscious rats and are expressed as a 20 min time course. The data reported are changes in HR and MAP from the average of the baseline (t−5 to t−1) from each rat. […]
In experiments 4-6, rats were made panic vulnerable with 1-AG. 5 days after 1-AG onset, in a counterbalanced design, rats received intraperitoneal (i.p.) injections of treatment drug or vehicle 30 min prior to i.v. infusions. […] In experiment 5, baseline in an open field (OF) behavior test of anxiety was assessed (n=8) prior to 1-AG infusions. […] Immediately following the NaLac challenge, rats were placed in the OF test. […] In experiment 6,1-AG treated rats received an injection of an alternative ORX1 receptor antagonist (30 mg/kg SB408124 (N-(6,8-Difluoro-2-methyl-4-quinolinyl)-N′-(4-(dimethylamino)phenyl)urea), Tocris, in 0.2 ml/100 g volume DMSO, n=4) or vehicle (0.2 ml/100 g volume DMSO, n=6) 30 min prior to NaLac. In experiment 7, control rats (no 1-AG or NaLac treatment) were assessed in a SI test.
Adult male Sprague-Dawley rats were anesthetized and surgically implanted with telemetrical probes to measure cardiovascular activity prior to and during lactate infusions. After a 3 day recovery, rats were anaesthetized and had osmotic minipumps (previously filled with 1-AG) stereotaxically implanted unilaterally into the DMH. […] 1960, Tocris, in 0.2 ml/100 g volume DMSO, n=12], alprazolam (3 mg/kg, Sigma, in 0.2 ml/100 g volume DMSO, n=6) or vehicle (0.2 ml/100 g volume DMSO, n=11) 30 min prior lactate challenge.

[2] = in vivo; cited from earlier work
[3] = 30 mg/kg i.p., experiment 5 (open field cohort)
[4] = i.p. 30 min prior to NaLac, SB334867/SB408124 30 mg/kg, alprazolam 3 mg/kg, experiments 4 and 6

For `Cc1nc2ccc(NC(=O)Nc3ccnc4cccnc34)cc2o1` [SB334867, N-(2-Methyl-6-benzoxazolyl)-N′-1,5-naphthyridin-4-yl urea], the “NaLac induced increases in heart rate (HR)” value [1, 3] was “attenuated”, the “NaLac induced increases in mean arterial blood pressure (MAP)” value [1, 3] was “attenuated” and the “NaLac induced increases in heart rate (HR)” value [1, 4] was “attenuated; also recorded: blocked”. For the same molecule, the “NaLac induced increases in mean arterial blood pressure (MAP)” value [1, 4] was “attenuated; also recorded: blocked” and the blood-brain barrier passage [2] was “crosses the blood-brain barrier”.
